The values below come from US20190022189A1, “USE OF SERELAXIN TO REDUCE GDF-15” (NOVARTIS AG, priority 2014, published 2019).

Experiment [1] deals with patients with acute heart failure. As to the kind of experiment: Cox regression models of 180-day cardiovascular mortality in the acute heart failure trial. The format is in vivo, human. The text has this: Multivariable linear regression models were developed for the changes in biomarker levels from baseline to day 2 and 14 using baseline patient clinical characteristics and routine laboratory measures; backwards elimination in the placebo group was used, with p<0.10 as the criterion for retention in the model. Missing predictors were imputed with the treatment-group-specific median for continuous variables and mode for categorical variables. GDF-15 values were log-transformed. To allow consistency and comparability of models with and without biomarkers, missing follow-up biomarker levels were imputed using linear interpolation or as last observation carried forward if no following measure was available. The linearity of associations was assessed using restricted cubic splines, and if significant non-linearity was found (at p<0.10), a dichotomized, trichotomized, linear spline or quadratic or cubic polynomial transformation was chosen based on the univariable Akaike's Information Criterion. The serelaxin effect on GDF-15 changes was then estimated with multivariable adjustment for covariates prognostic of these changes in the placebo group.
Associations of baseline biomarker values and changes with clinical outcomes were estimated with linear regression for dyspnea VAS AUC, and with Cox regression models for 60-day rehospitalization for heart failure or renal failure or cardiovascular death and for 180-day cardiovascular mortality. Linearity of associations of GDF-15 values with outcomes was assessed as above. Mean changes in biomarkers over time were estimated from repeated measures analysis of variance models, with no imputation for missing values.

Experiment [2] relates to GDF-15. Put plainly: GDF-15 in the pulmonary hemodynamic study, 20 hour infusion (Example 2). Type of experiment: in vivo, human. As to the method:
(§1) In a separate study, the pulmonary hemodynamic effects (e.g., the pulomonary load) of serelaxin were evaluated in patients hospitalized with acute heart failure (Ponikowski et al., Eur Heart J 35:431-441 (2014)). Patients were randomized 1:1 to serelaxin or placebo, initially stabilized, then infused with serelaxin at a dose of 30 ug/kg/d for 20 hours. Pulmonary congestion at the time of presentation was a required inclusion criterion. Time elapsed from hospital admission to the beginning of intravenous infusion of serelaxin was less than 29 hours. Serelaxin exerted rapid hemodynamic effects; changes were detected within the first 30 minutes of infusion and were sustained throughout the treatment period. Serelaxin reduced the time weighted average pulmonary capillary wedge pressure from baseline in the first eight hours of treatment (p=0.0001) as well as during hours 8-20 (p=0.03).
GDF-15 was measured in blood samples collected in serum separating tubes. The serum samples were centrifuged within two hours and plasma was stored at −20° C. or lower, followed by storage at −80° C. until the analysis was performed. GDF-15 was measured using a pre-commercial electrochemiluminescent immunoassay provided by Roche Diagnostics GmbH (Mannheim, Germany). All samples from the same patient were analyzed at the same time at a certified central laboratory by personnel blinded to patient treatment and study data.

Experiment [3] concerns patients hospitalized with acute heart failure. As to the kind of experiment: Pulmonary hemodynamic effects in patients hospitalized with acute heart failure (Example 2). The format is in vivo, human. As to the method: as §1
(§2) Pulmonary capillary wedge pressure (PCWP), mean pulmonary artery pressure (PAP), and pulmonary vascular resistance (PVR) were measured as well as NTproBNP and GDF-15 An analysis was performed of the association of GDF-15 and NTproBNP with these hemodynamic indices.

Another experiment deals with NTproBNP. As to the kind of experiment: NTproBNP in the pulmonary hemodynamic study (Example 2). Type of experiment: in vivo, human. The settings on record: 20 hour infusion; p=0.037. As to the method:
as §1, §2

Experiment [4] relates to patients with acute heart failure. Put plainly: Clinical outcomes in the acute heart failure trial (dyspnea, hospital stay, cardiovascular death). The format is in vivo, human. As to the method:
(§3) In an international, double-blind, placebo-controlled trial (Teerlink et al., Lancet 381:29-39 (2013)) the entire contents of which are herein incorporated by reference, patients displaying pulmonary congestion on chest radiograph and admitted to the hospital for acute heart failure were randomized to a 48 hour intravenous infusion of placebo or 30 μg/kg/d serelaxin. Time elapsed from arrival to the hospital to the intravenous administration of serelaxin was less than nine hours. […] The 48 hour infusion of serelaxin reduced cardiovascular death at 180 days ([…]). No previous intervention outcome trial in patients with acute heart failure has shown a beneficial effect on post discharge mortality.
Changes in patient-reported dyspnea were assessed through day 5 as the area under the change from baseline in visual analog scale score through day 5, where the worst possible score was assigned following death or worsening heart failure (dyspnea VAS AUC). Reasons for rehospitalization through day 60 and causes of deaths through day 180 were adjudicated centrally by a blinded endpoint committee.

Experiment [5] deals with GDF-15. Put plainly: Serum GDF-15 by electrochemiluminescent immunoassay in placebo-controlled acute heart failure trial (Example 1). The format is in vivo, human. The procedure:
as §3
Blood samples for biomarker analysis were collected in serum separating tubes prior to initiation of serelaxin or placebo (baseline) and at days 2, 5, 14, and 60. ‘The serum samples were centrifuged within 30 to 60 minutes of collection following visualization of a clot, frozen at −20° C. for up to four weeks, then sent on dry ice to a central laboratory for storage at −80° C. until the analysis was performed. GDF-15 was measured in the samples using a pre-commercial electrochemiluminescent immunoassay provided by Roche Diagnostics GmbH (Mannheim, Germany). All samples from the same patient were analyzed at the same time at a certified central laboratory by personnel blinded to patient treatment and study data. The reporting range for GDF-15 was 400 to 20,000 ng/L.
Multivariable linear regression models were developed for the changes in GDF-15 levels from baseline to days 2 and 14 using baseline patient clinical characteristics and routine laboratory measures; backwards elimination in the placebo, group was used, with p<0.10 as the criterion for retention in the model. Missing predictors were imputed with the treatment-group-specific median for continuous variables and mode for categorical variables. GDF-15 values were log-transformed. The linearity of associations was assessed using restricted cubic splines, and if significant non-linearity was found (at p<0.10), a dichotomized, trichotoniized, linear spline or quadratic or cubic polynomial transformation was chosen based on the univariable Akaike's Information Criterion. Adjusted R^2 values from 5-fold cross-validations are presented. The serelaxin effect on biomarker changes was then estimated in all patients with multivariable adjustment for covariates prognostic of these changes in the placebo group.

Experiment [6] relates to patients with acute heart failure. The settings on record: Phase 3 trial in acute heart failure (Teerlink et al.); cited from earlier work.
The subject of experiment [7] is GDF-15. Conditions: patients with symptomatic heart failure (Anand et al.); cited from earlier work.
In experiment [8] the test system is B-type natriuretic peptide. The settings on record: patients with symptomatic heart failure (Anand et al.); cited from earlier work.
Setting [9] is: 30 ug/kg/d infusion for 20 hours.

Marks after values point to notes of the source that are not given here.

Serelaxin: the “HR, CV death through Day 180” value in experiment [1] (adjusted for baseline GDF-15 and change in GDF-15 from baseline to Day 2) is given as 0.832; in [1] (adjusted for baseline GDF-15 and change in GDF-15 from baseline to Day 14, N = 1037), 0.847; in experiment [1] (adjusted for change in GDF-15 from baseline to Day 2 and multivariable predictors of outcome), 0.763; in experiment [1] (adjusted for change in GDF-15 from baseline to Day 14 and multivariable predictors of outcome, N = 1037) it was 0.753. Also, the “hazard ratio for 180-day CV mortality” value turned out to be 0.665 in experiment [1] (multivariable adjustment for baseline covariates, without GDF-15 change, 95% CI 0.430-1.028) and 0.619 in [1] (unadjusted for other baseline covariates, 95% CI 0.403-0.950). Also, the “GDF-15 levels versus placebo” value in the experiment with GDF-15 [2] (setting [9]) is “significantly decreased”. Also, the “reduction of GDF-15 geo-mean from baseline” value with GDF-15 [2] (setting [9]) is 16%. In the experiment with GDF-15 [2] (30 ug/kg/d infusion for 20 hours, p=0.0204), the “GDF-15 treatment difference in favor of serelaxin versus placebo” value was determined as 18%. Further, the baseline median GDF-15 with GDF-15 [2] (baseline, serelaxin group) was 3260 ng/L. For the same compound, the pulmonary vascular resistance entry in [3] (30 ug/kg/d infusion) is given as “concomitant decrease”. For the same compound, the systemic vascular resistance entry in experiment [3] (30 ug/kg/d infusion) was “concomitant decrease”. In addition, the “time weighted average pulmonary capillary wedge pressure from baseline” value is recorded as “reduced” in experiment [3] (first eight hours of treatment, p=0.0001) and “reduced” in experiment [3] (hours 8-20, p=0.03). In addition, in experiment [3] (from start of infusion, sustained throughout the treatment period), the “time until hemodynamic changes were detected” value is ≤ 30 min. Moreover, the “improvements in PCWP, PAP and PVR compared to placebo” value in experiment [3] (over the 20 hour infusion period, all p values <0.005) was “favored serelaxin”. In addition, the “systolic and diastolic pulmonary arterial pressure” value in experiment [3] (p=0001 at four hours) is recorded as “significantly lowered”. For the same compound, the NTproBNP result in the experiment on NTproBNP was “significantly reduced”. Further, in experiment [4] (48 hour infusion, p=0.28), the “cardiovascular death at 180 days” value is reported as “reduced”. Moreover, the patient-reported general well-being result in experiment [4] (48 hour iv infusion 30 μg/kg/d) is “improvements”. In addition, the “primary dyspnea efficacy endpoint, Visual Acuity Scale area under the curve” value in experiment [4] (48 hour iv infusion 30 μg/kg/d vs placebo, p=0.007) is “significantly improved”. Besides, the “reduction of time in the intensive care or coronary care unit” value in experiment [4] (vs placebo, p=0.03) came to 0.4 days. The “reduction of average length of hospital stay” value in experiment [4] (vs placebo, p=0.04) is 0.9 days. Further, the “GeoMean GDF-15” value was determined as 4380.3 ng/L with GDF-15 [5] (Baseline (before start of infusion)); 3395.6 ng/L with GDF-15 [5] (Day 2, 48 hour iv infusion 30 μg/kg/d); 3690.3 ng/L in the experiment with GDF-15 [5] (Day 5, 48 hour iv infusion 30 μg/kg/d); 3397.0 ng/L with GDF-15 [5] (Day 14, 48 hour iv infusion 30 μg/kg/d); 3114.0 ng/L in the experiment with GDF-15 [5] (Day 60, 48 hour iv infusion 30 μg/kg/d). For the same compound, the “Median GDF-15” value turned out to be 4115.5 ng/L in the experiment with GDF-15 [5] (Baseline (before start of infusion), serelaxin group n = 530); 3341.0 ng/L in the experiment on GDF-15 [5] (Day 2, 48 hour iv infusion 30 μg/kg/d, n = 530); 3584.5 ng/L with GDF-15 [5] (Day 5, 48 hour iv infusion 30 μg/kg/d, n = 530); 3296.0 ng/L in the experiment with GDF-15 [5] (Day 14, 48 hour iv infusion 30 μg/kg/d, n = 530); 2981.5 ng/L in the experiment on GDF-15 [5] (Day 60, 48 hour iv infusion 30 μg/kg/d, n = 530). Further, the “GDF-15 GeoMean Change vs Baseline” value is −21.6%* with GDF-15 [5] (Day 2), −14.95* % in the experiment with GDF-15 [5] (Day 5), −20.2%* in the experiment on GDF-15 [5] (Day 14) and −26.4%* in the experiment on GDF-15 [5] (Day 60). The “GDF-15 levels versus placebo, both in addition to standard of care” value in the experiment with GDF-15 [5] (day 14) is on record as “approached statistical significance”; with GDF-15 [5] (days 2 and 5), “significantly lower”. Moreover, the GDF-15 level entry in the experiment on GDF-15 [5] (day 60) was “trend towards lower”. Further, the “decrease in GDF-15” value with GDF-15 [5] (to day 14) is “faster decrease”. In experiment [6], the dyspnea entry was “rapid relief”. Also, the “mortality at six months” value in experiment [6] is “reduced”.

`CCCCC(=O)N(Cc1ccc(-c2ccccc2-c2nnn[nH]2)cc1)[C@H](C(=O)O)C(C)C` [Valsartan]: in the experiment with GDF-15 [7], the “effect on GDF-15” value is given as “no effect”. In experiment [8], the “heart failure biomarker B-type natriuretic peptide” value is reported as “lower”.
